In PMC3852661, “Structural basis of SUFU–GLI interaction in human Hedgehog signalling regulation” (Acta Crystallographica Section D: Biological Crystallography, 2013):

Experiments:
[1] = test system: MBP-SUFU-SH; assay: SYPRO Orange initial fluorescence upon peptide addition, MBP-SUFU-SH; format: binding, human; conditions: excitation 470 nm, emission 570 nm, pH 7.0
Description: (§1) Recombinant MBP-SUFU proteins were diluted to 2.6 µM in 50 mM Na HEPES pH 7.0, 50 mM NaCl, 5 mM β-mercaptoethanol; the peptides GLI1p and GLI1p-SH (Supplementary Table S1b), synthesized by Dr W. Mawby (University of Bristol), were dissolved in the same buffer. Proteins were spun at 14 000g for 20 min at 4°C before adding SYPRO Orange (Molecular Probes) to a final concentration of 6×. Reaction volumes of 25 µl were prepared in 96-well PCR plates with 2.2 µM protein/SYPRO Orange solution and, where applicable, 44 µM peptide. Plates were sealed with optical tape, heated from 20 to 90°C in 12 s 0.2°C steps in an iCycler and fluorescence was detected using an excitation wavelength of 470 nm and an emission wavelength of 570 nm.
Recombinant MBP-SUFU constructs were diluted to 2.5 µM in 50 mM Na HEPES pH 7.0, 50 mM NaCl, 5 mM β-mercaptoethanol and spun at 14 000g for 20 min at 4°C before the addition of SYPRO Orange to a final 5× concentration of dye. The fluorescence of 100 µl samples was measured in black 96-well plates (Nunc) using excitation at λ = 470 nm and emission at λ = 570 nm. GLI1p or GLI1p-SH peptides prepared in the same buffer as above were added in the given ratios and mixed before a second reading was taken. Readings post-peptide addition were divided by the corresponding pre-peptide addition measurements to obtain normalized results. […]

[2] = test system: MBP-SUFU-SH; assay: Thermal stability assay with peptide, MBP-SUFU-SH; format: binding, human; conditions: 44 µM peptide, 2.2 µM protein, SYPRO Orange, pH 7.0; triplicate
Description: as §1
Figure 4 The SUFU IDR has distinct structural properties. (a) Thermal stability assays of MBP-SUFU constructs performed in triplicate, either alone (blue) or with GLI1p (red) or GLI1p-SH (green). […] (b) Microscale thermophoresis experiments with FAM-GLI1p and titrated MBP-SUFU constructs, showing an average of three separate experiments. All proteins have similar affinity, but the thermophoretic properties of FAM-GLI1p are modified differently between the MBP-SUFU-FL construct and the MBP-SUFU-Δ and MBP-SUFU-SH constructs, reflecting a difference in shape.

[3] = molecular target: T1, MBP-SUFU-FL (Homo sapiens, UniProt Q9UMX1); assay: Thermal stability assay with peptide, MBP-SUFU-FL; format: binding; conditions: 44 µM peptide, 2.2 µM protein, SYPRO Orange, 50 mM Na HEPES pH 7.0, 50 mM NaCl, 5 mM β-mercaptoethanol; triplicate
T1 construct: containing residues 32–483 of human SUFU and a C-terminal hexahistidine tag; hexahistidine tag (C); made in house; host or cells: Escherichia coli JM109 (DE3)
Description: Recombinant MBP-SUFU proteins were diluted to 2.6 μM in 50 mM Na HEPES pH 7.0, 50 mM NaCl, 5 mM β-mercaptoethanol; the peptides GLI1p and GLI1p-SH (Supplementary Table S1b), synthesized by Dr W. Mawby (University of Bristol), were dissolved in the same buffer. Proteins were spun at 14 000g for 20 min at 4°C before adding SYPRO Orange (Molecular Probes) to a final concentration of 6×. Reaction volumes of 25 μl were prepared in 96-well PCR plates with 2.2 μM protein/SYPRO Orange solution and, where applicable, 44 μM peptide. Plates were sealed with optical tape, heated from 20 to 90°C in 12 s 0.2°C steps in an iCycler and fluorescence was detected using an excitation wavelength of 470 nm and an emission wavelength of 570 nm. To determine whether the IDR affects the GLI-binding properties of SUFU, we used a human GLI1-derived peptide (GLI1p; residues 115-131; Supplementary Table S1b) containing the highly conserved SYGH motif important for interaction with SUFU (Dunaeva et al., 2003[▶]) in a thermal stability assay with MBP-SUFU-FL and MBP-SUFU-Δ (Fig. 4 ▶ a). The addition of GLI1p stabilized both proteins: T m for MBP-SUFU-FL was shifted by 4°C and that for MBP-SUFU-Δ was shifted by 3.6°C. […] The GLI1 dose dependency of this effect was confirmed in a separate experiment with increasing GLI1p concentrations (Supplementary Fig. […]).

Chain of MBP-SUFU-SH (Q9UMX1 32-278 limits assumed): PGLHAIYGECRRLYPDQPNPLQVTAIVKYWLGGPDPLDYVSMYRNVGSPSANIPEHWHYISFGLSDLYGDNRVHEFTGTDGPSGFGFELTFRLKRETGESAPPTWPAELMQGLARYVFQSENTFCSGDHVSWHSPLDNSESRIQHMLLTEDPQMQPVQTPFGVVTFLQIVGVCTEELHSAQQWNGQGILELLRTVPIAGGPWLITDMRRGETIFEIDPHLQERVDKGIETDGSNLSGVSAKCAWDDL
Chain of MBP-SUFU-SH (Q9UMX1 361-483 limits assumed): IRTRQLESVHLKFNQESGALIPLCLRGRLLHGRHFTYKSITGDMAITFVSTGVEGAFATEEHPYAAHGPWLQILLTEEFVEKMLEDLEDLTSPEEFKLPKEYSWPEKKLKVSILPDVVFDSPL
T1 sequence (Q9UMX1 32-483, other chains not shown): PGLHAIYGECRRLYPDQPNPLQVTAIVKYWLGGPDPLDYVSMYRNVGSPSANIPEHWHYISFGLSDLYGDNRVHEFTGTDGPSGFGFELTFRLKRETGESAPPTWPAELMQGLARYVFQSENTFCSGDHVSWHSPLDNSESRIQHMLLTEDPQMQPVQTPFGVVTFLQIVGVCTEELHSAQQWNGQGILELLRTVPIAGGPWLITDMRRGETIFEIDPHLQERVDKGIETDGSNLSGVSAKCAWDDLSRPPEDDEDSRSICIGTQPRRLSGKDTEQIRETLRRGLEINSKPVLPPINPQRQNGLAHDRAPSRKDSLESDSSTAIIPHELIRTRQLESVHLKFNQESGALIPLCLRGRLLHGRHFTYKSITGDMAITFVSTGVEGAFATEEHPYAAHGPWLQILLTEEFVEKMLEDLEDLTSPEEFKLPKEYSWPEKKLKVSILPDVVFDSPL

binding [2]: All constructs bind to GLI1p
Tm shift [3]: 4 °C
Substance: GLI1p: human GLI1-derived peptide; residues 115–131, containing the highly conserved SYGH motif (TSPGGSYGHLSIGTMSP)
initial fluorescence upon addition of GLI1p [1]: no such effect
